Data on five compounds can be found in patent publication US5164391A, “Hydantoin derivatives for treating complications of diabetes and circulatory diseases” (priority 1989, dated 1992).

One assay has as its system platelet. Briefly: Inhibition of platelet agglutination (rat PRP). Type of assay: cell-based. Here is the method:
A blood was taken from a descending aorta of the rat anesthetized with ethyl ether. To the blood, 3.8% aqueous sodium citrate was added by a volume of 1/3 and the resulting solution was centrifuged (1500 rpm) at 4° C. for 10 minutes to obtain a supernatant which was designated as "PRP (platelet rich plasma)". The remaining residue was centrifuged (3000 rpm) at 4° C. for 10 minutes to obtain a supernatant which was designated as "PPP (platelet poor plasma)". A stirrer bar and PRP (267 μl) were inserted in a cell and PPP (more than 300 μl) was charged in another cell. A transmissivity to PRP and PPP was measured and set as "0%" for the former case and as "100%" for the latter case.
After a preincubation for 1 minute, a compound to be tested was added by 3 μl and then an agglutination causing substance (collagen or ADP) was added by 30 μl at a time lapsed of 1 minute from the addition of testing compound. For a control group, 3 μl of dimethylsulfoxide was added, instead of the testing compound. A maximum value in transmissivity change after the addition of agglutination causing substance was determined and made as a platelet agglutination rate (%).

For another assay, the system named is left atrium. Nature of the assay: Action to heart of guinea pig: left atrium (contraction power). Particulars: left atrium, 32°±1° C. Further details: species or system Hartley guinea pigs. Here is the method: (§1) Hartley guinea pigs (body weight of 300-400 g) were rendered unconscious by knocking their head and fixed upwardly to exenterate their heart. […] The vessel was previously filled with the Krebs-Henseleit solution and the said mixed gas was continuously fed therein.
(§2) Samples were prepared by separating from a ventricular muscle a right and left atrium, along an auricloventricular furrow or groove from the center-line of the right and left auricles.
The atrium was driven by contacting it with a platinum bipolar electrode attached to the cellfin and by stimulating the same with a rectangular pulse (1 Hz, 1 msec, 10 V). A movement of the sample was recorded by connecting the sample to a recorder through a silk thread and a FD pick-up.

The subject of the next assay is right atrium. Briefly: Action to heart of guinea pig: right atrium (pulsations).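 For all read-outs here: Dash means no recognizable influence on pulsation rate.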 Further details: species or system Hartley guinea pigs. The following applies: right atrium, 32°±1° C.; for inhibition at 100 µM / inhibition at 10 µM: Cavia porcellus, read-out: Pulsation. Here is the method:
as §1, §2
A contraction of the sample, due to a compound to be tested, was recorded through an FD pick-up. Concurrently, pulsations were input to a measuring unit to count and record number of the pulsations.

A further assay has as its system thoracic aorta. Briefly: Action to the aorta of guinea pig (relaxation of contracted spiral samples). The following applies: Cavia porcellus, 37° C. Further details: species or system Hartley guinea pigs. The text has this: Hartley guinea pigs (body weight of 300-500 g) were rendered unconscious fainted by knocking their head and fixed upwardly. A thoracic aorta was taken out to prepare spiral samples, each having size of about 2×25 mm. The sample was suspended in a Magnus tube under a load of about 1 g and upper end of the sample was connected through a silk thread to a FD pick-up to record a change in isometric tension.
Composition of Krebs-Henseleit solution:
Prior to the experiment, the sample in the Magnus tube was left to stand, as it was, for 60 to 90 minutes and in such period of time, the Krebs-Henseleit solution was exchanged to fresh one at an interval of 20 to 30 minutes.
When the contraction of the sample became constant, the compound to be tested was gradually added in a amount starting at a concentration of 10^-8, to […] to observe the contraction of the sample. Finally, papaverine was added therein, so as to make its final concentration of 2×10^-5 g/ml, to check and record also the relaxing reaction or atony caused by the papaverine.

The next assay deals with aldose reductase (Rattus norvegicus, UniProt P07943). Briefly: Inhibition to aldose reductase (method of Kador et al). Particulars: read-out: IC50 (50% Inhibitory Concentration). The format is biochemical. An excerpt: An ability for reducing or inhibiting activity of aldose reductase was checked, in accordance with the method of Kador et al as described in "Biophys.
The test system of assay [1] is blood pressure and cardiac pulsation. Briefly: Influences upon the blood pressure and cardiac pulsation in guinea pigs. The format is in vivo, Hartley guinea pigs. The following applies: i.v. The text has this:
Influences of compounds according to the invention upon the blood pressure and cardiac pulsation were checked with use of Hartley guinea pigs, as experimental animal.

[2] abbreviates: agglutination caused by ADP, N.D. : not detected, read-out: IC50 ADP.
Where [3] appears, read: agglutination caused by collagen, read-out: IC50 Collagen.
Setting [4] is: contraction by KCl 2.5×10^-2 M, read-out: IC50 KCl contraction (50% relaxing).
Setting [5] is: contraction by norepinephrine 10^-6 g/ml, read-out: IC50 N.E. contraction (50% relaxing).
Where [6] appears, read: Cavia porcellus, 10^-4 (M), read-out: Contraction.
The mark [7] stands for this setting: 10 mg/kg, Example 17 marked (*) p < 0.001.
The mark [8] stands for this setting: 10 mg/kg, Examples 16 and 17 marked (*) p < 0.001.

Where two headings read alike, the source gives them in different places.

With `O=C1NC(=O)[C@@]2(C[C@@H](C(=O)NCCN3CCN(C(c4ccccc4)c4ccccc4)CC3)Oc3ccc(F)cc32)N1` [Example 10, (2S,4S)-N-{2-[4-(Diphenylmethyl)piperazin-1-yl]ethyl}-6-fluoro-2',5'-dioxospiro[chroman-4,4'-imidazolidine]-2-carboxamide], the IC50 in the assay on platelet (setting [2]) turned out to be 700 µM; in the assay with platelet (setting [3]), 410 µM; in the assay on thoracic aorta (setting [4]), 1.8 µM; in the assay on thoracic aorta (setting [5]) it was 100 µM; at aldose reductase, 0.15 µM. Also, the Contraction entry in the assay with left atrium (10^-4 (M)) and in the assay with left atrium (10^-5 (M)) was “-” in each case. For the same compound, in the assay with right atrium (10^-4 (M)), the inhibition at 100 µM is greater than 20%. For the same compound, the inhibition at 10 µM in the assay on right atrium (10^-5 (M)) was in the range of 10 to 20%.
On to `O=C1NC(=O)[C@@]2(C[C@@H](C(=O)NCCN3CCC(Cc4ccccc4)CC3)Oc3ccc(F)cc32)N1` [Example 11, (2S,4S)-N-[2-(4-Benzylpiperidin-1-yl)ethyl]-6-fluoro-2'5'-dioxospiro[chroman-4,4'-imidazolidine]-2-carboxamide], for which the IC50 with platelet (setting [2]) was 370 µM; in the assay with platelet (setting [3]), 83 µM; with thoracic aorta (setting [4]) it was 1.9 µM; in the assay with thoracic aorta (setting [5]), 0.1 µM; at aldose reductase, 1.9 µM. For the same compound, in the assay on left atrium (10^-5 (M)), the Contraction result is recorded as “-”. Further, the results for the inhibition at 100 µM in the assay with left atrium (setting [6]) and with right atrium (10^-4 (M)) were 10 to 20% and greater than 20%, respectively. Further, in the assay with right atrium (10^-5 (M)), the inhibition at 10 µM lay within 10 to 20%.
`NC(=O)[C@@H]1C[C@]2(NC(=O)N(CCCN3CCC(O)CC3)C2=O)c2cc(F)ccc2O1` [Example 15, (2S,4S)-1'-[3-(4-Hydroxypiperidin-1-yl)propyl]-6-fluoro-2',5'-dioxospiro[chroman-4,4'-imidazolidine]-2-carboxamide]: the “Change in blood pressure” value is reported as -2.6 ± 1.8% in assay [1] (3 mg/kg) and -12.2 ± 5.6% in assay [1] (setting [8]). The results for the “Change in cardiac pulsation” value in assay [1] (3 mg/kg) and in assay [1] (setting [7]) were 0.0 ± 0.0% and -5.4 ± 2.9%, respectively. Also, the Contraction entry in the assay on left atrium (10^-4 (M)) and in the assay on left atrium (10^-5 (M)) was “-” in each case. The Pulsation result in the assay on right atrium (10^-4 (M)) and in the assay with right atrium (10^-5 (M)) was “-” in each case. In addition, the IC50 in the assay on thoracic aorta (setting [4]) stood at 8 µM; in the assay with thoracic aorta (setting [5]) it was 2 µM.
Consider `CCNC(=O)[C@@H]1C[C@]2(NC(=O)N(CCCN3CCC(O)CC3)C2=O)c2cc(F)ccc2O1` [Example 16, (2S,4S)-N-Ethyl-1'-[3-(4-hydroxypiperidin-1-yl)propyl]-6-fluoro-2',5'-dioxospiro[chroman-4,4'-imidaxolidine]-2-carboxamide], for which the results for the “Change in blood pressure” value in assay [1] (3 mg/kg) and in assay [1] (setting [8]) were -4.0 ± 4.0% and -21.3 ± 2.4%, respectively. The “Change in cardiac pulsation” value in assay [1] (3 mg/kg) is -1.2 ± 1.2%; in assay [1] (setting [7]) it was -4.7 ± 4.6%. In addition, the Contraction entry in the assay on left atrium (10^-4 (M)) and in the assay with left atrium (10^-5 (M)) was “-” each time. Also, the Pulsation entry in the assay on right atrium (10^-5 (M)) is given as “-”. Moreover, the inhibition at 100 µM in the assay with right atrium (10^-4 (M)) was 10 to 20%. Besides, the figures for the IC50 with thoracic aorta (setting [4]) and with thoracic aorta (setting [5]) were 59 µM and 5 µM, respectively.
As to `CCCCNC(=O)[C@@H]1C[C@]2(NC(=O)N(CCCN3CCC(O)CC3)C2=O)c2cc(F)ccc2O1` [Example 17, (2S,4S)-N-Butyl-1'-[3-(4-hydroxypiperidin-1-yl)propyl]-6-fluoro-2',5'-dioxospiro[chroman-4,4'-imidazolidine]-2-carboxamide], the “Change in blood pressure” value is listed as -3.0 ± 3.0% in assay [1] (3 mg/kg) and -43.8 ± 4.9% in assay [1] (setting [8]). The “Change in cardiac pulsation” value was -1.1 ± 1.1% in assay [1] (3 mg/kg) and -48.9 ± 2.2% in assay [1] (setting [7]). Also, the inhibition at 100 µM was greater than 20% in the assay on left atrium (setting [6]) and 10 to 20% with right atrium (10^-4 (M)). Besides, the inhibition at 10 µM in the assay on left atrium (Cavia porcellus, 10^-5 (M), read-out: Contraction) is 10 to 20%. Further, the Pulsation result in the assay with right atrium (10^-5 (M)) is recorded as “-”. Besides, the figures for the IC50 with thoracic aorta (setting [4]) and in the assay with thoracic aorta (setting [5]) were 1 µM and 30 µM, respectively.
